40 compounds from PubChem BioAssay AID1850 (Southern Research Specialized Biocontainment Screening …, 2009) can be followed below.

“And” between values parts separate entries of the source, which are not always exact repeats. Equal entries are not always repeated. A value given as a limit tells only on which side of the number the result lay.

The test system of this assay is Salmonella Typhi PhoP-promoter GFP reporter, fluorescence, 4 h. The assay is described as follows: Inhibition of PhoP regulon, Salmonella typhi GFP reporter cells, confirmation, 4 h (AID 1850).
As to `O=C(CN1CC(c2ccccc2)CC1=O)N/N=C/c1cc(Br)ccc1O` (stereo not given), the IC50 is 65.8 µM.

`Cc1ccccc1Nc1cc(C)c2c(O)cccc2n1`: the IC50 is 6.42 µM.

For `Oc1ccc(C2NCc3ccccc3-n3cccc32)cc1Cl` (stereo not given), the IC50 is 150 µM.

As for `CO[C@H]1C=CO[C@@]2(C)Oc3c(C)c(O)c4c(O)c(c5c(c4c3C2=O)NC2(CCN(CC(C)C)CC2)N=5)=NC(=O)C(C)=CC=C[C@H](C)[C@H](O)[C@@H](C)[C@@H](O)[C@@H](C)[C@H](OC(C)=O)[C@@H]1C`, the IC50 was 1.53 µM.

For `Oc1[nH]c2ccccc2c1N=NC(=S)N1CCOCC1`, the IC50 was 35.7 µM.

On to `CCN(CC(=O)NC(C)(C)C)C(=O)COc1c(Cl)cc(Cl)c2ccc(C)nc12`, for which the IC50 is 41.4 µM.

As to `CN1CCc2c(sc(NC(=O)c3ccc([N+](=O)[O-])o3)c2C(N)=O)C1`, the IC50 is 18.7 µM.

With `Cc1nonc1C(=O)N/N=C/c1ccc([N+](=O)[O-])o1`, the IC50 is 37.5 µM.

Regarding `C[C@H]1COc2c(C3(N)CC3)c(F)cc3c(=O)c(C(=O)O)cn1c23`, the IC50 is less than 0.23 µM.

As to `Cc1ccc(-c2[nH]ncc2/C=N/n2c(C)nc3ccccc3c2=O)cc1`, the IC50 was 149 µM.

For the compound `CCCCOc1ccc(NC2=NC3(CCCCC3)N=C(N)N2)cc1`, the IC50 was 6.52 µM.

Take `Cc1cc([N+](=O)[O-])nn1CC(=O)N/N=C/c1ccccc1O`: the IC50 was 47.1 µM.

Consider `CC1=NN(c2nc3ccccc3[nH]2)C(=O)C1Cc1ccccc1` (stereo not given), for which the IC50 was 50.3 µM.

Consider `N=c1n(CCN2CCCCC2)c2ccccc2n1CC(O)c1ccc(Cl)c(Cl)c1` (stereo not given), for which the IC50 was 37.1 µM.

For `O=[N+]([O-])c1cc(O)c2ncccc2c1`, the half-inhibitory concentration (IC50) was 14.2 µM.

On to `Cc1ccc2sc(N(CCCN(C)C)C(=O)c3ccc(Br)s3)nc2c1C`, for which the IC50 is 36.8 µM.

`OCCN1CCN(CCCN2c3ccccc3Sc3ccc(Cl)cc32)CC1`: the IC50 was 69.2 µM.

As to `N=c1c2c(n(Cc3ccc(Cl)c(Cl)c3)c3c1CCC3)CCCC2`, the IC50 is 37.4 µM.

As for `CNC[C@H](Cc1ccccc1)NC[C@@H](Cc1cccc2ccccc12)NCCc1ccc(C)cc1`, the IC50 was 19.6 µM.

Turning to `C1=C(CCNCc2ccccc2)CCCC1`, the concentration for half-maximal inhibition (IC50) was 6.38 µM.

On to `c1cnc2c(c1)ccc1cccnc12`, for which the IC50 is 49.3 µM and 39.1 µM.

For the compound `NC(=O)SCC(=O)Nc1cccc(Cl)c1`, the IC50 was 9.08 µM.

As for `CNCc1c(OCc2ccccc2F)ccc2ccccc12`, the IC50 is 79.5 µM.

On to `c1ccc(CN2CCN(c3ncnc4c3[nH]c3ccccc34)CC2)cc1`, for which the IC50 was 37.8 µM.

Consider `O=C(CCN1CCN(c2ccccc2)CC1)c1ccc(Cl)cc1`, for which the IC50 was 64.9 µM.

Take `Nc1ncncc1-c1ccc(Cl)cc1`: the IC50 is 143 µM.

Consider `Cc1ccc(NC(=O)CNCc2ccccc2)cc1Br`, for which the IC50 is 52.9 µM.

Turning to `c1ccc2cc3c(NCCN4CCOCC4)ccnc3cc2c1`, the IC50 is 77.1 µM.

With `O=C(O)c1cc2c(cn1)[nH]c1ccccc12`, the IC50 is 77.7 µM.

For `Nc1c2ccccc2nc2ccccc12`, the IC50 is 36.8 µM.

As for `CN(C)C1C(=O)C(C(N)=O)=C(O)C2(O)C(=O)C3=C(O)c4c(O)cccc4C(C)(O)C3C(O)C12` (stereo not given), the IC50 is 1.01 µM.

Regarding `CCCCCC[N+](C)(C)CC/C=C1/c2ccccc2Sc2ccc(Cl)cc21`, the IC50 was 38.1 µM.

Take `CCCCCc1ccc(OCCC[n+]2ccccc2)c(CCCCC)c1`: the IC50 was 39.5 µM.

Take `Cc1cc(N/N=C/c2ccc(O)cc2)c2cccc(C)c2n1`: the 50% inhibitory concentration (IC50) is 39.9 µM.

As for `NC1=C(Br)C(=O)c2ccccc2C1=O`, the IC50 was 25.4 µM.

As to `O=C(C[n+]1cc(-c2ccc(Cl)cc2)n2c1CCC2)Nc1nc(-c2ccccc2)cs1`, the 50% inhibitory concentration (IC50) was 22 µM.

For the compound `CCCCCCCCNC(C)C(O)c1ccc(SC(C)C)cc1` (stereo not given), the IC50 is 25.2 µM.

`Cc1c2ccncc2c(C)c2c1[nH]c1ccccc12`: the IC50 was 18.8 µM.

As to `COc1ccc(Nc2cc(C)c3c(O)cccc3n2)cc1`, the IC50 was 10.7 µM.

As for `CC[n+]1c(/C=C/N(C)c2ccccc2)n(-c2ccccc2)c2ccc(-c3nc4ccccc4s3)cc21`, the IC50 is 5.9 µM.

The IC50 is the concentration that inhibits the measured activity by half.
